In ChEMBL document CHEMBL3352081, “Wnt/β-Catenin Signaling Pathway Inhibitors: A Promising Cancer Therapy” (ACS Med Chem Lett, 2014) one finds IC50 data, which are given here for six compounds.

In the test the test system is HT-29. As to the kind of experiment: Inhibition of Wnt pathway in human HT29 cells after 24 hrs by TCF-driven luciferase reporter gene assay. The format is cell-based. Conditions: HT-29, 24 h.

Usually IC50 stands for the concentration at which inhibition is half-maximal. Higher therefore signals weaker potency. For `c1ccc(N2C[C@@H]3C[C@H]2CN3c2ncnc3nsnc23)nc1`, the IC50 is less than 1000 nM.
`O=C(Nc1cc2ccccc2cn1)C1CCN(c2ccnc3nsnc23)CC1` showed an IC50 of less than 500 nM.
In the case of `c1ccc(N2C[C@@H]3C[C@H]2CN3c2ccnc3nsnc23)cc1`, the IC50 is less than 50 nM.
Consider `Cc1ccccc1CNC(=O)C1CCN(c2ccnc3nsnc23)CC1`, for which the concentration for half-maximal inhibition (IC50) was less than 100 nM.
To `O=C(Nc1ccc(C(F)(F)F)cn1)C1CCN(c2ccnc3nsnc23)CC1` belongs less than 50 nM; to `O=C(Nc1ccccc1F)C1CCN(c2ccnc3nsnc23)CC1`, less than 5000 nM.
